What all share (format): in vivo, C57BL/6 mice
One series concerns circulating blood cells. The series can be described thus: Hematological cell count of peripheral blood 6 h after adjuvant administration (VetScan HMII). Conditions: mouse, in vivo. The procedure:
Take about 200 μL of blood from the retro-orbital venous plexus with a non-heparinized capillary tube and place the blood into a 1.5 mL tube comprising 2 μL of 10% EDTA-2K for hematological testing. Thoroughly mix the sample by gentle tapping. Stored at room temperature until hematological testing.
The hematological cell count was found using VetScan HMII (Abaxis). 50 μl of EDTA-2K blood sample was diluted by adding 250 μl of saline. Measurements are taken with VetScan HMII by following the instruction.
In a preliminary experiment, FCA and ALM were tested at different points up to 72 hours. […] At 6 hours after adjuvant administration, LV, SP, and LN (both sides) were removed to study the gene expression thereof by using Affimetrix Genechip microarray system (Affymetrix). The sampled organs were each placed in a tube containing RNAlater. The tube was maintained at 4° C. overnight, and stored at −80° C. until use. Blood was also collected after 6 hours from adjuvant administration for general hematological testing. About 200 μL of blood was taken from the retro-orbital venous plexus with a non-heparinized capillary tube and placed into a 1.5 mL tube comprising 2 μL of 10% EDTA-2K for hematological testing. The hematological cell count was found using VetScan HMII (Abaxis). 50 μl of EDTA-2K blood sample was diluted by adding 250 μl of saline. Measurements were taken with VetScan HMII by following the instruction.
The effect of adjuvant administration with respect to the changes in several hematological parameters was investigated. The following parameters were studied: white blood cells (WBC), lymphocytes (LYM), monocytes (MON), granulocytes (GRA), relative (%) content of lymphocytes (LY %), relative (%) content of monocytes (MO %), relative (%) content of granulocytes (GR %), red blood cells (RBC), hemoglobins (Hb, HGB), hematocrits (HCT), mean corpuscular volume (MCV), mean corpuscular hemoglobins (MCH), mean corpuscular hemoglobin concentration (MCHC), red blood cell distribution width (RDW), platelets (PLT), platelet concentration (PCT), mean platelet volume (MPV), and platelet distribution width (PDW).

The test system of another series is liver (LV). The series can be described thus: Whole organ transcriptome (GeneChip microarray) of liver 6 h after adjuvant administration: sDEGs, hierarchical clustering. For adjuvant group (cluster) in LV: key: G1 (interferon signaling); G2 (metabolism of lipids and lipoproteins); G3 (response to stress); G4 (response to wounding); G5 (phosphate-containing compound metabolic process); G6 (phagosome). The following applies: liver; for Number of gene probes with statistically significant changes (sDEGs), LV, Down / Number of gene probes with statistically significant changes (sDEGs), LV, Up: i.d. administration, 6 h after adjuvant; for Number of gene probes with statistically significant changes (sDEGs), LV, Down: fold change <0.667, p<0.01, customized PA call=1; for Number of gene probes with statistically significant changes (sDEGs), LV, Up: fold change >1.5, p<0.01, customized PA call=1.

Another series relates to spleen (SP). The series can be described thus: Whole organ transcriptome (GeneChip microarray) of spleen 6 h after adjuvant administration: sDEGs, hierarchical clustering. For adjuvant group (cluster) in SP: key: G1 (interferon signaling); G2 (metabolism of lipids and lipoproteins); G3 (response to stress); G4 (response to wounding); G5 (phosphate-containing compound metabolic process); G6 (phagosome). The following applies: for Number of gene probes with statistically significant changes (sDEGs), SP, Down / Number of gene probes with statistically significant changes (sDEGs), SP, Up: i.d. administration; for Number of gene probes with statistically significant changes (sDEGs), SP, Down: fold change <0.667, p<0.01, customized PA call=1, 6 h after adjuvant; for Number of gene probes with statistically significant changes (sDEGs), SP, Up: fold change >1.5, p<0.01, customized PA call=1, 6 h after adjuvant.

The subject of series [1] is inguinal lymph nodes (LN). The series can be described thus: Whole organ transcriptome (GeneChip microarray) of draining inguinal lymph nodes 6 h after adjuvant administration: sDEGs, gene modules, hierarchical clustering. For adjuvant group (cluster) in LN: key: G1 (interferon signaling); G2 (metabolism of lipids and lipoproteins); G3 (response to stress); G4 (response to wounding); G5 (phosphate-containing compound metabolic process); G6 (phagosome). The following applies: for Number of gene probes with statistically significant changes (sDEGs), LN, Down / Number of gene probes with statistically significant changes (sDEGs), LN, Up: i.d. administration, 6 h after adjuvant; for Number of gene probes with statistically significant changes (sDEGs), LN, Down: fold change <0.667, p<0.01, customized PA call=1; for Number of gene probes with statistically significant changes (sDEGs), LN, Up: fold change >1.5, p<0.01, customized PA call=1.

The subject of a further series is LV, SP and LNs. The series can be described thus: Whole organ transcriptome across organs (adjuvant gene space): gene responses and adjuvant grouping. Conditions: hierarchical clustering; LV, SP and/or LNs.
The subject of series [2] is preferentially upregulated genes in LV, SP, LN. The series can be described thus: Z-score-based differential gene expression analysis (adjuvant group- or adjuvant-associated genes, 40 module mapping, TargetMine annotation). The following applies: z-score selected genes; TargetMine and IPA upstream cytokine analyses. The source says:
Each sample's FC value was converted into a z-score on a gene basis by using the entire data set for each organ. The Z-score of the triplicates of interest were summed for each adjuvant. For example, the three sample z-score in the LV sample following cdiGMP administration was summed on a gene-by-gene basis, after which the summed scores of >3 genes were selected as relatively preferentially expressed genes in the LV after cdiGMP administration. The following threshold was applied for selections. […] G2^LV: ALM_IP(z>1) & bCD(z>1) & ENDCN(z>1) & FCA(z>1). […] G4^LV: MALP2s(z>3). […] G2^SP: ENDCN_x2+ENDCN_x3(z>2) & ALM_IP(z>3) & bCD(z>3). […] G4^SP: ADX_ID_x2+ADX_ID_x3(z>2) & ADX_IP(z>3) & MALP2s(z>3). […] G2^LN: bCD(z>3) & FCA(z>3). […] G5^LN: K3(z>1.5) & K3SPG_x1+K3SPG_x2(z>1) & D35_x1+D35_x3(z>1). G6^LN: AddaVax(z>3).

Peptide text beside a SMILES is read from it. * marks the point of attachment. X1 = CCCCCCCCCCCCCCCC(=O)OCC(C*)OC(=O)CCCCCCCCCCCCCCC; Palmitoyl = CCCCCCCCCCCCCCCC(=O)*

With `CCCCCCCCCCCCCCCC(=O)N[C@@H](CSCC(COC(=O)CCCCCCCCCCCCCCC)OC(=O)CCCCCCCCCCCCCCC)C(=O)N[C@@H](CO)C(=O)N[C@@H](CCCCN)C(=O)N[C@@H](CCCCN)C(=O)N[C@@H](CCCCN)C(=O)N[C@@H](CCCCN)C(=O)O` (stereo partly drawn) [Pam3CSK4, Pam-3-Cys-Ser-Lys-Lys-Lys-Lys] (Palmitoyl-C(X1)SKKKK-OH), the “monocytosis (monocytes in blood)” value with circulating blood cells is “clearly induced”.
Consider `Nc1nc2c(ncn2[C@@H]2O[C@@H]3COP(=O)(O)O[C@H]4[C@@H](O)[C@H](n5cnc6c(=O)[nH]c(N)nc65)O[C@@H]4COP(=O)(O)O[C@H]3[C@H]2O)c(=O)[nH]1` [cdlGMP], for which, in the series with liver (LV), the “Number of gene probes with statistically significant changes (sDEGs), LV, Down” value came out at 218 and the “Number of gene probes with statistically significant changes (sDEGs), LV, Up” value turned out to be 280. In the series on spleen (SP), the “Number of gene probes with statistically significant changes (sDEGs), SP, Down” value amounted to 261 and the “Number of gene probes with statistically significant changes (sDEGs), SP, Up” value was 707. In series [1] (lymph node), the “Number of gene probes with statistically significant changes (sDEGs), LN, Down” value stood at 908 and the “Number of gene probes with statistically significant changes (sDEGs), LN, Up” value is given as 1579.
Consider Polyinosine-polycytidylic acid [PolyIC], for which the “adjuvant group (cluster) in LV” value in the series with liver (LV) (hierarchical clustering) is recorded as “G1”. In addition, in the series with liver (LV), the “Number of gene probes with statistically significant changes (sDEGs), LV, Down” value stood at 1122 and the “Number of gene probes with statistically significant changes (sDEGs), LV, Up” value was 516. Further, in the series on spleen (SP) (hierarchical clustering), the “adjuvant group (cluster) in SP” value is reported as “G1”. In the series with spleen (SP), the “Number of gene probes with statistically significant changes (sDEGs), SP, Down” value came to 738 and the “Number of gene probes with statistically significant changes (sDEGs), SP, Up” value is recorded as 1360. Further, the “module M40^LN (immune system process; dendritic cells, macrophages, neutrophils, stromal cells)” value in series [1] (LN, 6 h) was “strongly induced”. Also, the “adjuvant group (cluster) in LN” value in series [1] (hierarchical clustering, lymph node) is listed as “G1”. Further, in series [1] (lymph node), the “Number of gene probes with statistically significant changes (sDEGs), LN, Down” value is recorded as 1460 and the “Number of gene probes with statistically significant changes (sDEGs), LN, Up” value was 2203. The “adjuvant group (cluster) within the adjuvant gene space” value in the series on LV, SP and LNs is reported as “group (G) 1”. Further, in series [2], the “adjuvant group-associated biological features” value was “strongly associated with type I and type II interferon responses”. For the same compound, in the series on circulating blood cells, the leukopenia entry was “caused leukopenia” and the lymphopenia entry was “strongly induced”.

The record behind these values is patent US20230021483A1, “[…] […] METHOD AND CLASSIFICATION OF PHARMACEUTICAL COMPONENTS BY USING TRANSCRIPTOMES” (National Institutes of Biomedical Innovation, Health and …, priority 2016, published 2023).
